# Reference: patent publication US12582731B2, “Method to decontaminate solid surface” (BIOMONETA RESEARCH PVT LTD, priority 2022, dated 2026)
# Tests used:
# microbial load [1] = experiment: Microbial load reduction on cotton cloth coated with quaternary ammonium compound alone; format: cell-based; conditions: no electric field
# Description: The solid surface (cotton cloth) was suspended in a solution containing cetyltrimethylammonium bromide (CTAB) or alkyl dimethyl benzyl ammonium chloride (benzalkonium chloride) at various concentrations for about 2 hours. The solid surfaces were then heat dried in a furnace where the temperature was set at about 80° C., for about 8 hours. Once dried, the solid surfaces coated with QAC were ready to be used for various applications.
# Reduction in microbial load was analysed at different concentrations of QACs.
# microbial load [2] = experiment: Microbial load reduction on QAC-coated cotton cloth with or without electric field; format: cell-based
# Description: The effect of QAC coating and electric field application on flexible solid surfaces was analysed. The solid surface analysed was fabric (cotton cloth). The procedure for coating of QAC (CTAB or benzalkonium chloride) onto the cotton cloth was identical to the procedure described in Example 1. The final coated amount of QAC (CTAB or benzalkonium chloride) was between 0.01-0.05 mg/cm^2 of the solid surface. The electric field in this experiment was applied via. switch mode power supply (SMPS) with a voltage of 4 kV/cm coupled with a capacitance of 0.05 μF for various time-periods.
# Reduction in microbial load was analysed using different methods.
substance,measurement,setting,value
alkyl dimethyl benzyl ammonium chloride [benzalkonium chloride],Microbial Load Reduction (Log10 Scale),"microbial load [1]; cotton cloth coated with 1% w/v, 0 mins",0.00 Log10
same,Microbial Load Reduction (Log10 Scale),"microbial load [1]; cotton cloth coated with 1% w/v, 10 mins",0.82 Log10
same,Microbial Load Reduction (Log10 Scale),"microbial load [1]; cotton cloth coated with 1% w/v, 30 mins",1.70 Log10
same,Microbial Load Reduction (Log10 Scale),"microbial load [1]; cotton cloth coated with 1% w/v, 45 mins",4.57 Log10
same,Microbial Load Reduction (Log10 Scale),"microbial load [1]; cotton cloth coated with 1% w/v, 60 mins",7.48 Log10
same,Microbial Load Reduction (Log10 Scale),"microbial load [1]; cotton cloth coated with 1% w/v, 90 mins",7.48 Log10
same,Microbial Load Reduction (Log10 Scale),"microbial load [1]; cotton cloth coated with 10% w/v, 0 mins",0.00 Log10
same,Microbial Load Reduction (Log10 Scale),"microbial load [1]; cotton cloth coated with 10% w/v, 10 mins",0.92 Log10
same,Microbial Load Reduction (Log10 Scale),"microbial load [1]; cotton cloth coated with 10% w/v, 30 mins",3.10 Log10
same,Microbial Load Reduction (Log10 Scale),"microbial load [1]; cotton cloth coated with 10% w/v, 45 mins",7.30 Log10
same,Microbial Load Reduction (Log10 Scale),"microbial load [1]; cotton cloth coated with 10% w/v, 60 mins",7.30 Log10
same,Microbial Load Reduction (Log10 Scale),"microbial load [1]; cotton cloth coated with 10% w/v, 90 mins",7.30 Log10
same,Microbial Load Reduction (Log10 Scale),"microbial load [2]; cotton cloth coated with 1% w/v, With Electric Field (SMPS, 4 kV/cm, 0.05 μF), 0 mins",0.00 Log10
same,Microbial Load Reduction (Log10 Scale),"microbial load [2]; cotton cloth coated with 1% w/v, With Electric Field (SMPS, 4 kV/cm, 0.05 μF), 10 mins",1.51 Log10
same,Microbial Load Reduction (Log10 Scale),"microbial load [2]; cotton cloth coated with 1% w/v, With Electric Field (SMPS, 4 kV/cm, 0.05 μF), 30 mins",2.39 Log10
same,Microbial Load Reduction (Log10 Scale),"microbial load [2]; cotton cloth coated with 1% w/v, Without Electric Field, 0 mins",0.00 Log10
same,Microbial Load Reduction (Log10 Scale),"microbial load [2]; cotton cloth coated with 1% w/v, Without Electric Field, 10 mins",0.82 Log10
same,Microbial Load Reduction (Log10 Scale),"microbial load [2]; cotton cloth coated with 1% w/v, Without Electric Field, 30 mins",1.70 Log10
same,Microbial Load Reduction (Log10 Scale),"microbial load [2]; cotton cloth coated with 10% w/v, With Electric Field (SMPS, 4 kV/cm, 0.05 μF), 0 mins",0.00 Log10
same,Microbial Load Reduction (Log10 Scale),"microbial load [2]; cotton cloth coated with 10% w/v, With Electric Field (SMPS, 4 kV/cm, 0.05 μF), 10 mins",1.16 Log10
same,Microbial Load Reduction (Log10 Scale),"microbial load [2]; cotton cloth coated with 10% w/v, With Electric Field (SMPS, 4 kV/cm, 0.05 μF), 30 mins",3.03 Log10
same,Microbial Load Reduction (Log10 Scale),"microbial load [2]; cotton cloth coated with 10% w/v, Without Electric Field, 0 mins",0.00 Log10
same,Microbial Load Reduction (Log10 Scale),"microbial load [2]; cotton cloth coated with 10% w/v, Without Electric Field, 10 mins",0.92 Log10
same,Microbial Load Reduction (Log10 Scale),"microbial load [2]; cotton cloth coated with 10% w/v, Without Electric Field, 30 mins",3.10 Log10
